The values that follow are results of earlier work, collected in patent EP1862927B1, “Descriptors of three-dimensional objects, uses thereof and a method to generate the same” (SILICOS NV, priority 2006, dated 2007).

Molecules are shown by their SMILES.

In the data set the target is T1, human soluble epoxide hydrolase (Homo sapiens, UniProt P34913).
T1 sequence (P34913 1-555): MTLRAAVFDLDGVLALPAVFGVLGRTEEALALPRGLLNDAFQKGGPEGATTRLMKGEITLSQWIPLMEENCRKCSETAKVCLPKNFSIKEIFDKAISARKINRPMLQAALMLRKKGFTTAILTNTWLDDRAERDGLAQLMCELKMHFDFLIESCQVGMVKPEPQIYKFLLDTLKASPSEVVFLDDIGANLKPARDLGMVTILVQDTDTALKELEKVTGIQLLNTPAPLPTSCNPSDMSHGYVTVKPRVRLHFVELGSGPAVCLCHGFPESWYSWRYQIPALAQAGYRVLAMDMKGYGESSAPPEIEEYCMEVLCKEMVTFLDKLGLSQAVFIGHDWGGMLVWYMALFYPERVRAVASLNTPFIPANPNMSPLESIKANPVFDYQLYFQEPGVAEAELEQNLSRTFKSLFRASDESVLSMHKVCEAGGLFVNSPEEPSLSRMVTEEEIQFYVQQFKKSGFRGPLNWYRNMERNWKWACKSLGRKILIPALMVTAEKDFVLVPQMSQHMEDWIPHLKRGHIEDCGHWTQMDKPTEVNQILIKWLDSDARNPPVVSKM
To be noted: inhibition constants of urea-like molecular species taken from McElroy et al., J. Med. Chem. 46, 1066-1080.

Consider `O=C(NCC1CCCCC1)NC1C2CC3CC(C2)CC1C3` (stereo not shown) [molecular species 136], for which the IC50 was 100 nM.
